# According to patent publication US20220412958A1, “METHOD FOR EVALUATING SAFETY OF SUBSTANCE IN VITRO USING HUMAN IMMORTALIZED MYELOID CELLS” (MiCAN Technologies Inc., priority 2019, published 2022):
# Assays:
# iPS-ML2 [1] = test: Detection test of skin sensitizer and/or pyrogen: IL-6/IL-8 production by immortalized monocytes (ELISA); format: cell-based, human; conditions: iPS-ML2, both 6 hr and 24 hr after culturing; negative control = culture medium alone
# Excerpt: (§1) 1. […] 2. […] This operation was repeated once more. 3. […] 4. […] 5. […] 6. […] 7. […] 8. […] 9. […] 10.
# iPS-ML2 [2] = test: Evaluation test of skin sensitizing property and/or pyrogenic property: IL-6/IL-8 production by immortalized monocytes (ELISA); format: cell-based, human; conditions: iPS-ML2, 6 hr after addition, culture supernatant ELISA; negative control = medium alone; test substance up to 200 μg/mL
# Excerpt: as §1
# mouse = conditions: in vivo; cited from earlier work
compound,measurement,setting,value
Staphylococcus aureus Cowan 1 [SAC],production amount of IL-6 in the culture supernatant with respect to the negative control,iPS-ML2 [1],increased as the dilution rate became smaller
same,production amount of IL-8 in the culture supernatant with respect to the negative control,iPS-ML2 [1],increased as the dilution rate became smaller
"CC(O)C(=O)O (centres unmarked) [N7, Lactic acid]",production of IL-6 compared with the negative control,iPS-ML2 [2],did not show production
same,production of IL-8 compared with the negative control,iPS-ML2 [2],did not show production
"Nc1ccc(N)cc1 [P2, 4-Phenylenediamine]",skin sensitizing property in LLNA,mouse,have skin sensitizing property
